Laboratory results from PubChem BioAssay (NCI).
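Five concentrations, 48 hours, 96-well plates. Abbreviation: GI50, concentration required for 50% inhibition of growth. TGI denotes the concentration required for complete inhibition of growth.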

Experiments:
Assay in all cases: NCI anticancer screen, dose series, 48 h
M14 melanoma = system: M14 melanoma
UACC-257 melanoma = system: UACC-257 melanoma
SW-620 colon = system: SW-620 colon
UO-31 renal = system: UO-31 renal
MOLT-4 leukemia = system: MOLT-4 leukemia
CCRF-CEM leukemia = system: CCRF-CEM leukemia
MALME-3M melanoma = system: MALME-3M melanoma
K-562 leukemia = system: K-562 leukemia
HCT-15 colon = system: HCT-15 colon
PC-3 prostate = system: PC-3 prostate

| Structure (SMILES) | TGI (M14 melanoma) [µM] | TGI (UACC-257 melanoma) [µM] | TGI (SW-620 colon) [µM] | TGI (UO-31 renal) [µM] | TGI (MOLT-4 leukemia) [µM] | TGI (CCRF-CEM leukemia) [µM] | TGI (MALME-3M melanoma) [µM] | TGI (K-562 leukemia) [µM] | TGI (HCT-15 colon) [µM] | GI50 (PC-3 prostate) [nM] | TGI (PC-3 prostate) [µM] | GI50 (M14 melanoma) [nM] | GI50 (UACC-257 melanoma) [nM] | GI50 (HCT-15 colon) [µM] | GI50 (SW-620 colon) [nM] | GI50 (UO-31 renal) [µM] | GI50 (MOLT-4 leukemia) [µM] | GI50 (CCRF-CEM leukemia) [nM] | GI50 (K-562 leukemia) [µM] |
| --- | --- | --- | --- | --- | --- | --- | --- | --- | --- | --- | --- | --- | --- | --- | --- | --- | --- | --- | --- |
| CNS(=O)(=O)NNS(=O)(=O)c1ccc(Cl)cc1 | > 100 | > 100 | > 100 | > 100 | > 100 | > 100 | > 100 | > 100 | – | – | – | – | – | – | – | – | – | – | – |
| c1ccc(P(=Nc2ccccc2N=P(c2ccccc2)(c2ccccc2)c2ccccc2)(c2ccccc2)c2ccccc2)cc1 | 15.7 | 12.5 | 14.3 | 6.35 | – | 13 | – | 11.2 | – | – | – | – | – | – | – | – | – | – | – |
| COC(CN1C=C(Sc2ccccc2)CC1)OC | > 100 | 98.1 | 47.9 | > 100 | 80.3 | 62.8 | > 100 | 53.7 | > 100 | – | – | – | – | – | – | – | – | – | – |
| O=[N+]([O-])c1cc(S(=O)(=O)Oc2ccccc2)ccc1Cl | 4.28 | 3.1 | 3.59 | 3.17 | 45.1 | 3.53 | – | > 100 | 12.5 | 2050 | 4.45 | 2060 | 1600 | 3.56 | 1560 | 1.75 | 2.17 | 594 | 0.432 |
| COC(=O)CC1NC(=O)C1C1(C)OCCO1 (stereo unspecified) | > 100 | > 100 | > 100 | > 100 | – | – | > 100 | – | > 100 | – | – | – | – | – | – | – | – | – | – |
| C[C@@H]1O[C@@H](OC[C@H]2O[C@@H](OCCc3ccc(O)c(O)c3)[C@H](O)[C@@H](O)[C@@H]2OC(=O)/C=C/c2ccc(O)c(O)c2)[C@H](O)[C@H](O)[C@H]1O | > 100 | > 100 | > 100 | > 100 | > 100 | – | – | > 100 | > 100 | > 100000 | > 100 | > 100000 | > 100000 | > 100 | > 100000 | > 100 | > 100 | – | > 100 |
| CCCCCCN(N)C(=O)CC#N | > 100 | > 100 | > 100 | > 100 | > 100 | > 100 | > 100 | > 100 | > 100 | – | – | – | – | – | – | – | – | – | – |
| C=C1CCC2[C@@H](CCC3[C@]2(C)CCC[C@]3(C)C(=O)OC)[C@@H]1CC=O (stereo partly specified) | 40.2 | 68.9 | 37.6 | > 100 | 59.9 | 64.2 | 87.7 | 77.4 | 81.2 | – | – | – | – | – | – | 31.3 | 23.6 | – | 26 |
| Cn1cncc1CC1COC(=O)C1C(O)c1ccccc1 (stereo unspecified) | > 100 | > 100 | > 100 | – | > 100 | > 100 | > 100 | > 100 | > 100 | – | > 100 | – | – | – | – | – | – | – | – |
| Cn1c2ccccc2n2c(=O)c3c(c(C#N)c12)CCCC3 | > 100 | > 100 | > 100 | > 100 | > 100 | – | > 100 | > 100 | > 100 | – | – | – | – | – | – | – | – | – | – |
